From US20110130425A1, “Use of H3 Histaminergic Agonists for the Treatment of Addiction to Drugs of Abuse” (priority 2009, published 2011)
Entries after “also recorded” stand apart in the source; their conditions may differ.

Tests used:
dopamine release = assay: Nicotine stimulation of dopamine release in striatal miniprisms; format: cell-based, Sprague-Dawley rat; conditions: 0.5 mM L-histidine preincubation; 100 nM nicotine, 15 mM K+; rat striatal miniprisms; vs controls
Experimental: One male Sprague-Dawley rat obtained from Charles-River weighing 200-250 g is used. The rat brain is rapidly removed and placed in ice-cold oxygen-saturated (O2/CO2:95%/5%) Krebs bicarbonate buffer (124 mM NaCl, 0.8 mM KCl, 1.25 mM NaH2PO4, 1.2 mM KH2PO4, 0.67 mM MgSO4, 2.6 mM CaCl2, 10 mM glucose and 27.5 mM NaHCO3, pH 7.4). The striata is dissected and cut using a Mcllwain™ Mechanical Tissue Copper (Stoelting Co., Wood Dale, Ill.) into miniprisms of 0.3 mm/side. The microprims are transferred to ice-cold Krebs buffer, gently centrifuged, and the buffer changed to remove damaged tissue and cellular debris.
Brain miniprisms are distributed into 24 flat-bottom Eppendorf tubes and preincubated for 2 hours in 0.25 mL Krebs buffer at 37° C. using an Eppendorf Thermomixer® under a O2/CO2 atmosphere. Then the medium is replaced with fresh Krebs buffer at 37° C. with or without 0.5 mM L-histidine prepared in the same buffer. This concentration of L-histidine is similar to that reached in plasma of L-histidine-treated humans (Block et al., 1967). […]
All samples are then cooled down on ice and quickly centrifuged at 1000×g for 1 minute to separate buffer from tissue. […] An automatic autosampler Merck-Hitachi L-7200 and an automated fraction collector Gilson FC203B automatically recover internal standard dopamine peaks when UV detected into scintillation vials. […]

[1] = tested on: relapse into cocaine seeking; assay: Relapse phase: rehabilitation test, relapse induced by a single dose of cocaine; format: in vivo, rat; conditions: L-histidine 500 mg/kg i.p. one hour before; cocaine 0.5 mg/kg; vs saline; rats
Text: III. Relapse Phase: The relapse phase is studied by using a rehabilitation test. In this phase, the desire of the rats for the drug is again induced by the administration of a single dose of drug. At this instant, the rat again feels the desire to obtain the drug, and so it again begins to press on the lever to obtain the drug, but the drug is not available to the animal.
The behavior of the rats was also studied during the relapse phase, after the animals had gone through the extinction phase. In the extinction phase, the animals received no reward (dose of cocaine) when they pressed the lever. After a minimum of six extinction sessions, lasting 2 hours each session, carried out on consecutive days, the lever-pressing behavior of the rats diminished at least 20 times in comparison to the start of the extinction sessions.
When the number of times that the rats pressed the lever decreased, the animals were subjected to 4 hour rehabilitation sessions (i.e., relapse sessions). These rehabilitation sessions consisted initially of extinction sessions of 3 hours, followed by the automatic release, by an injection, of a saline solution or different doses of cocaine. During the fourth hour, the behavior of the animals was studied in regard to the number of times that they pressed the lever after the administration of the different doses of cocaine (0 mg/kg, 0.5 mg/kg and 2 mg/kg). The number of times that the lever was pressed increased in proportion to the dose of cocaine administered (cocaine at 0.5 mg/kg or 2 mg/kg administered intravenously, or saline in controls) (FIG. 8). However, this increase in the number of times that the animals pressed the lever was not rewarded with the administration of more cocaine. The number of times that the rats pressed the lever was indicative of the rat's need to find the drug. Even so, the pressing of the lever was not rewarded with more cocaine, which differentiates this stage from that corresponding to self-administration. […]

What does the source list for `N[C@@H](Cc1c[nH]cn1)C(=O)O` [L-histidine]?
dopamine release caused by nicotine stimulation (dopamine release): less dopamine release; lever pressing after relapse induced by a single dose of cocaine [1]: caused a decrease in the pressing on the lever; also recorded: diminished significantly
